Results published in paper PMC12892976, “Alkylation-based optimization of antifungal FPPS inhibitors yields a potent, broad-spectrum lipophilic zoledronate derivative” (mBio, 2025).
In brackets after ≈: the same amount, converted by molar mass.

What was measured:
[1] = system: Aspergillus niger; experiment: checkerboard drug interaction (FICI, MICc); assay type: cell-based;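 also: simplified diagonal checkerboard screen pairing antifungals with FPPS inhibitors, FICI calculated under the Loewe additivity model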
Description: (§1) Drug interactions between antifungals and FPPS inhibitors were investigated using a simplified checkerboard diagonal screening method ([45]). […] FICIs were determined according to the Loewe additivity model ([17]).

[2] = system: Candida parapsilosis; experiment: MIC broth microdilution (CLSI); assay type: cell-based; conditions: Candida parapsilosis ATCC 22018
Description: Antifungal susceptibility was determined by broth microdilution according to the CLSI guidelines described in M27-Ed4 ([16]). […] MFC was determined by back-plating drug-treated cultures from MIC broths onto SDA plates. The MFC was defined as the lowest concentration from which no colonies could be cultured.

[3] = system: Cryptococcus deneoformans; experiment: MIC broth microdilution (CLSI); assay type: cell-based; conditions: Cryptococcus deneoformans JEC21
Description: (§2) Antifungal susceptibility was determined by broth microdilution according to the CLSI guidelines described in M27-Ed4 ([16]).

[4] = system: Candida parapsilosis; experiment: checkerboard drug interaction (FICI, MICc); assay type: cell-based;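 also: simplified diagonal checkerboard screen pairing antifungals with FPPS inhibitors, with FICI computed under the Loewe additivity model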
Description: as §1

[5] = system: Cryptococcus tetragattii; experiment: checkerboard drug interaction (FICI, MICc); assay type: cell-based;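 also: simplified diagonal checkerboard screen pairing antifungals with FPPS inhibitors, with FICI calculated under the Loewe additivity model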
Description: as §1

[6] = system: Mucor circinelloides; experiment: MIC broth microdilution (CLSI); assay type: cell-based; conditions: Mucor circinelloides 80-14-240-5007
Description: as §2

[7] = system: Aspergillus frankstonensis; experiment: checkerboard drug interaction (FICI, MICc);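 also: simplified diagonal checkerboard screen pairing antifungals with FPPS inhibitors, FICI calculated using the Loewe additivity model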
Description: as §1

[8] = system: Fusarium solani; experiment: checkerboard drug interaction (FICI, MICc); assay type: cell-based;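 also: simplified diagonal checkerboard screen pairing antifungals with FPPS inhibitors, FICI derived under the Loewe additivity model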
Description: as §1

[9] = system: Mucor circinelloides; experiment: checkerboard drug interaction (FICI, MICc); assay type: cell-based;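 also: simplified diagonal checkerboard screen pairing antifungals with FPPS inhibitors, FICI calculated under the Loewe additivity model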
Description: as §1

[10] = system: Candida auris; experiment: checkerboard drug interaction (FICI, MICc); assay type: cell-based;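 also: simplified diagonal checkerboard screen pairing antifungals with FPPS inhibitors, with FICI computed under the Loewe additivity model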
Description: as §1

[11] = system: Trichophyton interdigitale; experiment: MIC broth microdilution (CLSI); assay type: cell-based; conditions: Trichophyton interdigitale R-234
Description: as §2

[12] = system: Enterococcus faecalis; experiment: antibacterial MIC; assay type: cell-based
Excerpt: […]; Table S3). […]. […] […].

Q: With `O=P(O)(O)C(O)(Cn1ccnc1)P(=O)(O)O` [ZOL, zoledronate] as the compound, how does the “bisphosphonate MICc” value ([1]; ZOL with 5FC) read?
A: Its value is 512.

Q: What about the “bisphosphonate MICc” value ([1]; ZOL with AMB) of the same compound?
A: Its value is 8.

Q: And the “bisphosphonate MICc” value ([1]; ZOL with CAS)?
A: Its value is 512.

Q: What about the “bisphosphonate MICc” value ([1]; ZOL with FLC) of the same compound?
A: The value was 512.

Q: What about the “bisphosphonate MICc” value ([1]; ZOL with ITR) of the same compound?
A: Its value is 32.

Q: What about the “bisphosphonate MICc” value ([1]; ZOL with KET) of the same compound?
A: The value was 256.

Q: What about the “bisphosphonate MICc” value ([1]; ZOL with VOR) of the same compound?
A: The value was 8.

Q: And the “MIC / MEC” value [2]?
A: Its value is 128 µg/mL (≈ 470 µM).

Q: What about the “MIC / MEC” value [3] of the same compound?
A: Its value is 128 µg/mL (≈ 470 µM).

Q: What about the FICI ([4]; 5FC:ZOL) of the same compound?
A: Its FICI is 1.

Q: What about the FICI ([4]; AMB:ZOL) of the same compound?
A: Its FICI is 1.5.

Q: And the FICI ([4]; CAS:ZOL)?
A: The FICI was 0.75.

Q: And the FICI ([4]; FLC:ZOL)?
A: Its FICI is 0.38.

Q: And the FICI ([4]; ITR:ZOL)?
A: The FICI was 0.5.

Q: What about the FICI ([4]; KET:ZOL) of the same compound?
A: The FICI was 0.53.

Q: And the FICI ([4]; VOR:ZOL)?
A: The FICI was 1.21.

Q: What about the “bisphosphonate MICc” value ([4]; ZOL with 5FC) of the same compound?
A: Its value is 64.

Q: What about the “bisphosphonate MICc” value ([4]; ZOL with AMB) of the same compound?
A: Its value is 64.

Q: And the “bisphosphonate MICc” value ([4]; ZOL with CAS)?
A: The value was 32.

Q: What about the “bisphosphonate MICc” value ([4]; ZOL with FLC) of the same compound?
A: The value was 32.

Q: And the “bisphosphonate MICc” value ([4]; ZOL with ITR)?
A: The value was 32.

Q: What about the “bisphosphonate MICc” value ([4]; ZOL with KET) of the same compound?
A: The value was 4.

Q: And the “bisphosphonate MICc” value ([4]; ZOL with VOR)?
A: The value was 32.

Q: And the FICI ([5]; 5FC:ZOL)?
A: The FICI was 1.13.

Q: And the FICI ([5]; AMB:ZOL)?
A: Its FICI is 1.25.

Q: And the FICI ([5]; CAS:ZOL)?
A: The FICI was 2.5.

Q: And the FICI ([5]; FLC:ZOL)?
A: The FICI was 0.5.

Q: What about the FICI ([5]; ITR:ZOL) of the same compound?
A: Its FICI is 2.06.

Q: And the FICI ([5]; KET:ZOL)?
A: Its FICI is 0.75.

Q: What about the FICI ([5]; VOR:ZOL) of the same compound?
A: Its FICI is 1.46.

Q: And the “bisphosphonate MICc” value ([5]; ZOL with 5FC)?
A: The value was 64.

Q: What about the “bisphosphonate MICc” value ([5]; ZOL with AMB) of the same compound?
A: The value was 64.

Q: And the “bisphosphonate MICc” value ([5]; ZOL with CAS)?
A: Its value is 32.

Q: What about the “bisphosphonate MICc” value ([5]; ZOL with FLC) of the same compound?
A: Its value is 16.

Q: What about the “bisphosphonate MICc” value ([5]; ZOL with ITR) of the same compound?
A: The value was 4.

Q: And the “bisphosphonate MICc” value ([5]; ZOL with KET)?
A: Its value is 16.

Q: What about the “bisphosphonate MICc” value ([5]; ZOL with VOR) of the same compound?
A: The value was 32.

Q: And the “MIC / MEC” value [6]?
A: The value was 64 µg/mL (≈ 235 µM).

Q: What about the FICI ([7]; 5FC:ZOL) of the same compound?
A: Its FICI is at least 4.

Q: And the FICI ([7]; AMB:ZOL)?
A: Its FICI is 2.

Q: What about the FICI ([7]; CAS:ZOL) of the same compound?
A: The FICI was at least 4.

Q: And the FICI ([7]; FLC:ZOL)?
A: The FICI was 0.56.

Q: And the FICI ([7]; ITR:ZOL)?
A: The FICI was 1.25.

Q: And the FICI ([7]; KET:ZOL)?
A: The FICI was 1.

Q: And the FICI ([7]; VOR:ZOL)?
A: Its FICI is 1.13.

Q: What about the “bisphosphonate MICc” value ([7]; ZOL with 5FC) of the same compound?
A: Its value is 256.

Q: What about the “bisphosphonate MICc” value ([7]; ZOL with AMB) of the same compound?
A: Its value is 128.

Q: What about the “bisphosphonate MICc” value ([7]; ZOL with CAS) of the same compound?
A: The value was 256.

Q: What about the “bisphosphonate MICc” value ([7]; ZOL with FLC) of the same compound?
A: Its value is 8.

Q: And the “bisphosphonate MICc” value ([7]; ZOL with ITR)?
A: Its value is 32.

Q: What about the “bisphosphonate MICc” value ([7]; ZOL with KET) of the same compound?
A: Its value is 64.

Q: And the “bisphosphonate MICc” value ([7]; ZOL with VOR)?
A: The value was 16.

Q: And the FICI ([8]; 5FC:ZOL)?
A: The FICI was 3.

Q: And the FICI ([8]; AMB:ZOL)?
A: Its FICI is 0.75.

Q: And the FICI ([8]; CAS:ZOL)?
A: Its FICI is at least 4.

Q: And the FICI ([8]; FLC:ZOL)?
A: The FICI was 0.75.

Q: What about the FICI ([8]; ITR:ZOL) of the same compound?
A: Its FICI is 0.38.

Q: And the FICI ([8]; KET:ZOL)?
A: The FICI was 0.75.

Q: And the FICI ([8]; VOR:ZOL)?
A: Its FICI is 1.03.

Q: And the “bisphosphonate MICc” value ([8]; ZOL with 5FC)?
A: The value was 256.

Q: What about the “bisphosphonate MICc” value ([8]; ZOL with AMB) of the same compound?
A: The value was 64.

Q: And the “bisphosphonate MICc” value ([8]; ZOL with CAS)?
A: Its value is 256.

Q: And the “bisphosphonate MICc” value ([8]; ZOL with FLC)?
A: Its value is 128.

Q: What about the “bisphosphonate MICc” value ([8]; ZOL with ITR) of the same compound?
A: The value was 32.

Q: And the “bisphosphonate MICc” value ([8]; ZOL with KET)?
A: Its value is 128.

Q: And the “bisphosphonate MICc” value ([8]; ZOL with VOR)?
A: The value was 8.

Q: And the FICI ([9]; 5FC:ZOL)?
A: The FICI was at least 4.

Q: What about the FICI ([9]; AMB:ZOL) of the same compound?
A: Its FICI is 3.

Q: What about the FICI ([9]; CAS:ZOL) of the same compound?
A: Its FICI is 1.

Q: What about the FICI ([9]; FLC:ZOL) of the same compound?
A: The FICI was 0.38.

Q: What about the FICI ([9]; ITR:ZOL) of the same compound?
A: Its FICI is 0.25.

Q: What about the FICI ([9]; KET:ZOL) of the same compound?
A: The FICI was 0.75.

Q: What about the FICI ([9]; VOR:ZOL) of the same compound?
A: The FICI was 0.63.

Q: And the “bisphosphonate MICc” value ([9]; ZOL with 5FC)?
A: The value was 64.

Q: What about the “bisphosphonate MICc” value ([9]; ZOL with AMB) of the same compound?
A: Its value is 128.

Q: What about the “bisphosphonate MICc” value ([9]; ZOL with CAS) of the same compound?
A: Its value is 32.

Q: What about the “bisphosphonate MICc” value ([9]; ZOL with FLC) of the same compound?
A: The value was 16.

Q: And the “bisphosphonate MICc” value ([9]; ZOL with ITR)?
A: Its value is 8.

Q: And the “bisphosphonate MICc” value ([9]; ZOL with KET)?
A: Its value is 16.

Q: What about the “bisphosphonate MICc” value ([9]; ZOL with VOR) of the same compound?
A: The value was 8.

Q: And the FICI ([10]; 5FC:ZOL)?
A: Its FICI is 1.5.

Q: What about the FICI ([10]; AMB:ZOL) of the same compound?
A: Its FICI is 1.13.

Q: What about the FICI ([10]; CAS:ZOL) of the same compound?
A: The FICI was 1.25.

Q: What about the FICI ([10]; FLC:ZOL) of the same compound?
A: Its FICI is 0.38.

Q: What about the FICI ([10]; ITR:ZOL) of the same compound?
A: Its FICI is 0.63.

Q: And the FICI ([10]; KET:ZOL)?
A: Its FICI is 0.5.

Q: What about the FICI ([10]; VOR:ZOL) of the same compound?
A: The FICI was 0.63.

Q: And the “bisphosphonate MICc” value ([10]; ZOL with 5FC)?
A: The value was 128.

Q: And the “bisphosphonate MICc” value ([10]; ZOL with AMB)?
A: Its value is 16.

Q: And the “bisphosphonate MICc” value ([10]; ZOL with CAS)?
A: Its value is 32.

Q: And the “bisphosphonate MICc” value ([10]; ZOL with FLC)?
A: The value was 32.

Q: And the “bisphosphonate MICc” value ([10]; ZOL with ITR)?
A: Its value is 16.

Q: And the “bisphosphonate MICc” value ([10]; ZOL with KET)?
A: Its value is 32.

Q: What about the “bisphosphonate MICc” value ([10]; ZOL with VOR) of the same compound?
A: The value was 16.

Q: And the “MIC / MEC” value [11]?
A: Its value is 256 µg/mL (≈ 941 µM).

Q: And the MIC [12]?
A: Its MIC is 256 µg/mL (≈ 941 µM).
